Literature values in US8350024B2, “Sugar derivatives and application of same” (priority 2006, dated 2013).

System: herpes simplex virus type 2
Details: conventional drug, comparison value

Question: For `Nc1nc2c(ncn2COCCO)c(=O)[nH]1` [acyclovir], which selection index is on record?
Answer: The selection index was “about 800”.
